# From publication PMC4253978, “Characterization of the Anopheles gambiae octopamine receptor and discovery of potential agonists and antagonists using a combined computational-experimental approach” (Malaria Journal, 2014)
# Where a name gives a salt, the structure may show the parent alone. Read-outs that look alike come from different tables or passages of the source.
# Assays:
# [1] = target: T1, AgOAR45B (Anopheles gambiae, UniProt F5HJT6); type: cell-based; conditions: for IC50: read-out: IC 50 (antagonist), in the presence of 1 μM octopamine
# T1 sequence (F5HJT6 entry or part of it): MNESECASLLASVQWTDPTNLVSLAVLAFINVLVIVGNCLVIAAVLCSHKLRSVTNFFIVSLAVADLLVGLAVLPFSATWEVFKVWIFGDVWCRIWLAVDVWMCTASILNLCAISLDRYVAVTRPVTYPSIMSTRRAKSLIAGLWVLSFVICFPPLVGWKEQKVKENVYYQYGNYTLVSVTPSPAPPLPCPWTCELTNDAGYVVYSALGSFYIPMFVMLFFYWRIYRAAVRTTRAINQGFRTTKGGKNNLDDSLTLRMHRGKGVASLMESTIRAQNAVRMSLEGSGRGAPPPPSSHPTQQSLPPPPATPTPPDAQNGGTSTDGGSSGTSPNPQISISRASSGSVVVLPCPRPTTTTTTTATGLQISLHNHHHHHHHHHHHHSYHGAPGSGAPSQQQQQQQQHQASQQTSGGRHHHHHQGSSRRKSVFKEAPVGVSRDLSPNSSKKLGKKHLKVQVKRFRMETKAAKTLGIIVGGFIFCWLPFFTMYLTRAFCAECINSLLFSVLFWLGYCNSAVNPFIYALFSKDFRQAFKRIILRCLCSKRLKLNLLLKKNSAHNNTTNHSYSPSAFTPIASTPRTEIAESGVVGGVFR
# Method: GloResponse™CRE-luc2P HEK293 reporter cell line (Promega) were maintained as adherent culture at 37°C, 5% CO2 in DMEM (Invitrogen) supplemented with 10% fetal calf serum (Atlanta), and […] hygromycin B. Transfection of cells was carried out using the Amaxa Nucleofector kit per the manufacturer’s instructions. […] Stable lines were created by applying […] G418 for three weeks. Stable clones of AgOAR45B expressing HEK293 reporter cells were created through two rounds of limiting dilution cloning.
# Intracellular cAMP increase was monitored through a CRE-luc reporter construct in HEK293 cells (Promega). Stable cell lines were plated at a density of 4×10^4 cells per well in white 96-well assay plates (Corning, Cat. #3917). Cells were immediately treated with the various compounds, and returned to the incubator for four hours before being assayed. cAMP was quantified through luciferase production using the Dual-Glo luciferase assay kit (Promega) following the manufacturer’s instructions. Luciferase units were normalized to the cell number using the internal Rluc construct in the pF9A expression plasmid.
# [2] = target: AgOAR45A (Anopheles gambiae, UniProt Q7PRZ8, DEL426-427); assay: cell-based
# Sequence of AgOAR45A (Q7PRZ8 entry or part of it DEL426-427): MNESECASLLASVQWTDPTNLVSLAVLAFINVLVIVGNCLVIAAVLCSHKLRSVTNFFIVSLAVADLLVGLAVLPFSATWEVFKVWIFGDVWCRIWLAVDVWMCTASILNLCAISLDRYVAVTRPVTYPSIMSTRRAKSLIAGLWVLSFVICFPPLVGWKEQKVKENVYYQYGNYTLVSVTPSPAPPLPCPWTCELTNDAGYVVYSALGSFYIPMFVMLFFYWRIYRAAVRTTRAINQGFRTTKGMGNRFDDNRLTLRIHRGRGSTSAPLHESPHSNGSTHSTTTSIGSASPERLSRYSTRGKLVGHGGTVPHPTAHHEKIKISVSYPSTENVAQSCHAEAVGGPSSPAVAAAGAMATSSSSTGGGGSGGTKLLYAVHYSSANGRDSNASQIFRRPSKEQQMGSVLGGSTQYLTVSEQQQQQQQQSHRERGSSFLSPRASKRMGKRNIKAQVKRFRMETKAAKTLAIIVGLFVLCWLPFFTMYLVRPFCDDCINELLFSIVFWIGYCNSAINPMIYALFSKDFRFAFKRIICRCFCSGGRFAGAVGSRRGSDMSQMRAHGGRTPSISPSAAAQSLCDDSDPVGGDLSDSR
# [3] = target: T1, AgOAR45B; assay: 3H-Yohimbine competition radioligand binding assay on membranes; conditions: competition with 16 nM 3H-Yohimbine
# Method: Cells in T75 flasks were washed with 10 ml of PBS, removed by scraping, centrifuged at 500 g, and then resuspended in 5 ml of lysis buffer, 50 mM Tris-Cl pH 7.4. Cells were incubated on ice for 10 min and homogenized with a Dounce homogenizer with 30 strokes. The homogenate and 5 ml wash with lysis buffer were then centrifuged at 23,000 g for 30 min at 4°C to pellet crude membranes. The resulting pellet was re-suspended in 50 mM Tris-Cl pH 7.4, 5 mM MgCl2, 0.5 mM EDTA pH 7.4 and quantified by micro BCA assay (Thermo).
# Radioligand binding assays were carried out using ^3H-Yohimbine to determine binding affinity of the octopamine receptor with different compounds. Isolated membranes, 30 μg per well, were incubated in the presence of 16 nM ^3H-Yohimbine (American Radiolabeled Chemicals) in binding buffer, and various concentrations of compounds. The final reaction volume was […] per well in a 96-well assay plate. […] clonidine was used to determine non-specific binding in each experiment. After a two-hour incubation, membranes were collected and washed on filter mats, pretreated with 0.3% polyethylenimine (Sigma) using a Brandel 96-well harvester and counted in a Perkin Elmer Microbeta counter.
# [4] = read-out: EC 50 (agonist), AgOAR45B, HEK293-CRE-Luc cells
Structure (SMILES),"EC50 [1, 4] [nM]",EC50 [2] [nM],IC50 ([1]; AgOAR45B) [nM],"EC50 ([1]; Table 2, AgOAR45B reporter assay) [nM]",Ki [3] [nM]
"NCCc1ccc(O)c(O)c1 [Dopamine, dopamine]",> 50000,> 50000,,,
"CCN(CC)CCNC(=O)c1cc(Cl)c(N)cc1OC [Metaclopramide, Metoclopramide hydrochloride]",,,> 50000,,
"Clc1cccc(Cl)c1N=C1NCCN1 [Clonidine, clonidine]",0.24,2,,,
"NCC(O)c1ccc(O)cc1 (racemic) [Octopamine, DL-octopamine]",17,53,,17,7700
"c1ccc2c(CC3=NCCN3)cccc2c1 [Naphazoline, naphazoline]",0.23,2.2,,,
"CN(C)CCCN1c2ccccc2Sc2ccc(Cl)cc21 [Chlorpromazine, chlorpromazine]",,,9900,,
"c1ccc(CC2=NCCN2)cc1 [Tolazoline, tolazoline]",5,280,,,
"NCCc1c[nH]c2ccc(O)cc12 [Serotonin, serotonin]",> 50000,> 50000,,,
"Cc1ccc(N(CC2=NCCN2)c2cccc(O)c2)cc1 [Phentolamine, phentolamine]",5.8,10,,,
"NCCc1ccc(O)cc1 [Tyramine, tyramine]",840,4600,,,
"CC(CN1c2ccccc2Sc2ccccc21)N(C)C (stereo not drawn) [Promethazine, promethazine]",,,2000,,
